Measured values taken from patent US11672786B2, “Methods of treating diseases associated with repeat instability” (The Hospital for Sick Children, priority 2016, dated 2023).

How the values were obtained:
HT1080-(CAG)850 cells = test: cell toxicity, WST-1 assay; conditions: treated with NA for 72 hr
Procedure: Scale bar represents 20 μm.
The construction of the HT1080-(CAG)850 cell model was described previously (Sathasivam et al., 1997, Hum. Genet., 99:692-5). Briefly, HT1080 (ATCC) human fibrosarcoma cells were co-transfected with a plasmid (LC15-R) containing 800-850 (CTG)●(CAG) repeats (Nakatani et al., 2005, Nat. Chem. Biol., 1:39-43) and a plasmid encoding PhiC31 integrase. Transfection was performed with a Nucleofector (Lonza, Basel, Switzerland), and stably transfected clones were selected with puromycin. The HT1080-non transcribing (CAG)850 cell model was established by transfecting a plasmid modified from pLC16 by adding a SV40 polyadenylation signal downstream of the repeats, instead of LC15-R. The HT1080-non-transcribing (CAG)850 cell model was established by transfecting a plasmid modified from pLC16 by inserting an additional SV40 polyadenylation signal downstream of the repeats (in addition to the original polyadenylation signals located upstream of the repeats), so that CAG/CTG repeats are floxed by transcription-terminator elements. The AttB-PhiC31 system has been widely used for single copy integration. […]

[1] = test system: CASK, ATXN8, and Mfd15 loci in HT1080-(CAG)850 cells; test: repeat-tract lengths of non-expanded loci in HT1080-(CAG)850 cells; type: cell-based, human; conditions: 30 days incubation with or without NA
Excerpt: FIG. 5 are results from experiments showing that NA induces CAG contractions in HT1080-(CAG)850 cells, independent of proliferation, dependent upon rCAG transcription. […] Panel B of FIG. 5 are histograms showing repeat length distributions in HT1080-(CAG)850 cells. Frequency distribution of unstable alleles is shown by gray bars. Frequency of stable alleles is shown by black bars. To facilitate comparisons, a dashed line indicates the unchanged CAG size. Allele lengths are grouped in bins spanning 50 repeats. […] More than 50 alleles were sized for each group. P-value was calculated by chi-square test (Table 2). […] P-value was calculated by Student's t-test. […] Repeat length distributions and average repeat size changes are shown. […] Quantitative reverse transcription (RT)-PCR was performed using TaqMan Gene Expression assays. […]
Genomic DNA was extracted from HT1080-(CAG)850 clones and HD primary fibroblasts using the Gentra Puregene Cell Kit (Qiagen, Valencia, Calif.). […] At least 50 alleles were analyzed for each of the three experiments (more than 150 alleles for a total study). […] For the histograms in FIGS. 4D, 4E, 10, 11, 5B, 5D, 5E, 14 and 15B, the Y-axis, “% of repeat population” was calculated by determining the proportion of >50 individual small-pool PCR reactions across the CAG repeat tract, that harbored a certain size of repeat product with a certain length. […]

[2] = test system: Slip-outs of 3, 5, 11 or 15 CAG repeats; test: band-shift NA binding to slip-outs of 3, 5, 11 or 15 CAG repeats; conditions: NA 15 μM and 50 μM
Procedure: Slip-outs of 3, 5, 11 or 15 CAG repeats extruded as a single slip-out from a fully base-paired backbone (see top panel, DNAs sequence and structure). One pmol of each substrate was mixed with increasing concentrations of NA (15 μM and 50 μM) and resolved on 4% polyacrylamide gels. All lanes are from the same gel, and they were separated for clarity. NA-DNA complexes are shown by brackets, free DNA is indicated by arrowheads. For the linear substrate, there is no NA binding (white arrowheads); at the higher concentration of NA, a small decrease of the short slip-outs DNAs (3 and 5 repeats) is observed (grey arrowheads), but it is not possible to define a clear shifted band; band-shift is evident for the (CAG)11 and (CAG)15 slip-out DNAs (black arrowheads). The relative mobility shift was measured (graph panel) as the ratio of the migration distance of each NA-DNA complex to the migration distance of the free DNA. The migration distance was measured from the well to a consistent centre point of each band. Histograms indicate the mean of three independent experiments and the corresponding standard deviation. P-values were calculated by Student's t test.

naphthyridine-azaquinolone
acute cytotoxicity (cell viability, WST-1) (HT1080-(CAG)850 cells): without causing acute cytotoxicity
length variation at CASK, ATXN8, and Mfd15 loci [1]: Length variation was not observed
NA binding by slip-out length (relative mobility shift) [2]: significantly better for longer than shorter CAG slip-outs
